Laboratory results published in ChEMBL document CHEMBL3091342, “Preparation, in vitro evaluation and molecular modelling of pyridinium-quinolinium/isoquinolinium non-symmetrical bisquaternary cholinesterase inhibitors” (Bioorg Med Chem Lett, 2013).

Assays:
Cholinesterase = Cholinesterase (Homo sapiens, UniProt P06276); test: Inhibition of human plasmatic BChE after 5 mins by Ellman's method; set-up: species or system Plasma
Acetylcholinesterase [1] = biological target: T1, Acetylcholinesterase (Homo sapiens, UniProt P22303); test: Inhibition of human recombinant AChE after 5 mins by Ellman's method
Acetylcholinesterase [2] = biological target: T1, Acetylcholinesterase; test: Inhibition of human recombinant AChE by Lineweaver-Burk plot analysis
Acetylcholinesterase [3] = biological target: T1, Acetylcholinesterase; test: Non competitive inhibition of human recombinant AChE using ATChCl as substrate by Lineweaver-Burk plot analysis

Cholinesterase, sequence (P06276 whole entry): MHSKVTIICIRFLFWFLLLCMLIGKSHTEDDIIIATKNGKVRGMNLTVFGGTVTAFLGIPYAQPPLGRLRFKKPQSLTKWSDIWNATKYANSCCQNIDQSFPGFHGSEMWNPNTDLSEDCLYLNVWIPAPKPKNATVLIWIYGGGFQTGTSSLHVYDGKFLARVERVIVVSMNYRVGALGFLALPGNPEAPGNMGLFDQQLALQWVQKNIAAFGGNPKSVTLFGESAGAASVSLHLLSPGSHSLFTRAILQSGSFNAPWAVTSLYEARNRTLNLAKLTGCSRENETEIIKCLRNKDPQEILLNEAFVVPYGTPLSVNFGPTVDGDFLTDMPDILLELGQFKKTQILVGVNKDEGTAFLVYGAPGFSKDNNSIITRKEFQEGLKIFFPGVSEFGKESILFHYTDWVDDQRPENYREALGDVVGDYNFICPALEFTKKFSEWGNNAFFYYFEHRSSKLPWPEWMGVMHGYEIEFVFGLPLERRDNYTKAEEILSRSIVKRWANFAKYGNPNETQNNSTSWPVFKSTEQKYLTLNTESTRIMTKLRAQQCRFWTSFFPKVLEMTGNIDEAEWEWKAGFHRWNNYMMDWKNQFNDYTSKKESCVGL
T1 sequence (P22303 whole entry): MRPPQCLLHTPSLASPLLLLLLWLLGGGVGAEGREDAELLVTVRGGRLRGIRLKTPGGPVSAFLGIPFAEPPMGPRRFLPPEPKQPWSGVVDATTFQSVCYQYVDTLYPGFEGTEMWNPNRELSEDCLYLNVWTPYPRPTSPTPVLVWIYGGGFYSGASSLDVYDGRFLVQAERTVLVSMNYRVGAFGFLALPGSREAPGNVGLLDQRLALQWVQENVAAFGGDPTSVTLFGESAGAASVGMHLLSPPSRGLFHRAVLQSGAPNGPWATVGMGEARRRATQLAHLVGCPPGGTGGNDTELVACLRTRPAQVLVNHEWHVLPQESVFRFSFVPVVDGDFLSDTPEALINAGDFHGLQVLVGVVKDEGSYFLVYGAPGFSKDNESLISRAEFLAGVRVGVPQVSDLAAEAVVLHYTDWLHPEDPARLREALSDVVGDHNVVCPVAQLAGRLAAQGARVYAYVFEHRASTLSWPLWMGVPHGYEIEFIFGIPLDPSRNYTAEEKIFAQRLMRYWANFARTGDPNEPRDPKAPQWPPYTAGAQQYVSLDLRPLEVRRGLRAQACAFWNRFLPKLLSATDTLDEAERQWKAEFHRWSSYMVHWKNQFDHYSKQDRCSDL

| Compound | IC50 (Cholinesterase) [nM] | IC50 (Acetylcholinesterase [1]) [nM] | Ki (Acetylcholinesterase [2]) [nM] | Ki (Acetylcholinesterase [3]) [nM] |
| --- | --- | --- | --- | --- |
| c1cc[n+](CCCCCCC[n+]2ccc3ccccc3c2)cc1 | 1000 | 800 |  |  |
| c1cc[n+](CCCCCCCC[n+]2ccc3ccccc3c2)cc1 | 7700 | 140 |  |  |
| c1cc[n+](CCCCCCCCC[n+]2ccc3ccccc3c2)cc1 | 350 | 40 |  |  |
| c1cc[n+](CCCCCCCCCC[n+]2ccc3ccccc3c2)cc1 | 370 | 20 |  |  |
| c1cc[n+](CCCCCCCCCCC[n+]2ccc3ccccc3c2)cc1 | 700 | 30 |  |  |
| c1cc[n+](CCCCCCC[n+]2cccc3ccccc32)cc1 | 2200 | 540 |  |  |
| c1cc[n+](CCCCCCCC[n+]2cccc3ccccc32)cc1 | 2000 | 270 |  |  |
| c1cc[n+](CCCCCCCCC[n+]2cccc3ccccc32)cc1 | 1700 | 120 |  |  |
| c1cc[n+](CCCCCCCCCCC[n+]2cccc3ccccc32)cc1 | 900 | 17 |  |  |
| c1cc[n+](CCCCCCCCCCCC[n+]2cccc3ccccc32)cc1 | 680 | 4.7 | 20 | 10 |
